Patent US6358885B1, “Substituted phenylheterocyclic herbicides” (Mississippi State University, priority 1992, dated 2002)

Legend:
Assay in all cases: Test F preemergence/postemergence greenhouse plant response rating 0 to 100
winter barley = type: in vivo, Hordeum vulgare cv. ‘Igri’; conditions: POSTEMERGENCE, 0 to 100 scale
Excerpt: (§1) Compounds evaluated in this test were formulated in a non-phytoxic solvent and applied to the soil surface before plant seedlings emerged (preemergence application) and to plants that were in the one-to-four leaf stage (postemergence application). A sandy loam soil was used for the preemergence test while a mixture of sandy loam soil and greenhouse potting mix in a 60:40 ratio was used for the postemergence test. Test compounds were applied within approximately one day after planting seeds for the preemergence test. Plantings of these crops and weed species were adjusted to produce plants of appropriate size for the postemergence test. All plant species were grown using normal greenhouse practices. Crop and weed species include winter barley (Hordeum vulgare cv. ‘Igri’), blackgrass (Alopecurus myosuroides), chickweed (Stellaria media), downy brome (Bromus tectorum), field violet (Viola arvensis), galium (Galium aparine), green foxtail (Setaria viridis), kochia (Kochia scoparia), lambsquarters (Chenopodium album), speedwell (Veronica persica), rape (Brassica napus), ryegrass (Lolium multiflorum), sugar beet (Beta vulgaris cv. ‘USl’), sunflower (Helianthus annuus cv. ‘Russian Giant’), spring wheat (Triticum aestivum cv. ‘ERA’), winter wheat (Triticum aestivum cv. ‘Talent’), wild buckwheat (Polygonum convolvulus), wild mustard (Sinapis arvensis), wild oat (Avena fatua), and wild radish (Raphanus raphanistrum). Blackgrass, galium and wild oat were treated at two growth stages. […] Treated plants and untreated controls were maintained in a greenhouse for approximately 21 to 28 days, after which all treated plants were compared to untreated controls and visually evaluated. […] A dash response (-) means no test result.

chickweed = type: in vivo, Stellaria media; conditions: POSTEMERGENCE, 0 to 100 scale
Excerpt: as §1

downy brome = type: in vivo, Bromus tectorum; conditions: POSTEMERGENCE, 0 to 100 scale
Excerpt: as §1

field violet = type: in vivo, Viola arvensis; conditions: POSTEMERGENCE, 0 to 100 scale
Excerpt: as §1

galium = type: in vivo, Galium aparine; conditions: POSTEMERGENCE, 0 to 100 scale; for Galium (1) plant response rating: stage (1) two to three leaves; for Galium (2) plant response rating: stage (2) approximately four leaves or initial tillering
Excerpt: as §1

kochia = type: in vivo, Kochia scoparia; conditions: POSTEMERGENCE, 0 to 100 scale
Excerpt: as §1

lambsquarters = type: in vivo, Chenopodium album; conditions: POSTEMERGENCE, 0 to 100 scale
Excerpt: as §1

ryegrass = type: in vivo, Lolium multiflorum; conditions: POSTEMERGENCE, 0 to 100 scale
Excerpt: as §1

sunflower = type: in vivo, Helianthus annuus cv. ‘Russian Giant’; conditions: POSTEMERGENCE, 0 to 100 scale
Excerpt: as §1

spring wheat = type: in vivo, Triticum aestivum cv. ‘ERA’; conditions: POSTEMERGENCE, 0 to 100 scale
Excerpt: as §1

winter wheat = type: in vivo, Triticum aestivum cv. ‘Talent’; conditions: POSTEMERGENCE, 0 to 100 scale
Excerpt: as §1

wild mustard = type: in vivo, Sinapis arvensis; conditions: POSTEMERGENCE, 0 to 100 scale
Excerpt: as §1

wild oat = type: in vivo, Avena fatua; conditions: POSTEMERGENCE, 0 to 100 scale; for Wild oat (1) plant response rating: stage (1) two to three leaves; for Wild oat (2) plant response rating: stage (2) approximately four leaves or initial tillering
Excerpt: as §1

wild radish = type: in vivo, Raphanus raphanistrum; conditions: POSTEMERGENCE, 0 to 100 scale
Excerpt: as §1

Q: `CCOC(=O)COc1cc(-c2nn3c(c2Cl)CCCC3)c(F)cc1Cl` [Compound 42] was tested. Which “Winter Barley plant response rating” value (winter barley; Rate 2 g/ha) did it give?
A: 10

Q: What about the “Winter Barley plant response rating” value (winter barley; Rate 4 g/ha) of the same molecule?
A: 10

Q: And the “Winter Barley plant response rating” value (winter barley; Rate 8 g/ha)?
A: 10

Q: And the “Winter Barley plant response rating” value (winter barley; Rate 16 g/ha)?
A: 10

Q: And the “Winter Barley plant response rating” value (winter barley; Rate 32 g/ha)?
A: 10

Q: And the “Chickweed plant response rating” value (chickweed; Rate 2 g/ha)?
A: 0

Q: And the “Chickweed plant response rating” value (chickweed; Rate 4 g/ha)?
A: 0

Q: And the “Chickweed plant response rating” value (chickweed; Rate 8 g/ha)?
A: 0

Q: And the “Chickweed plant response rating” value (chickweed; Rate 16 g/ha)?
A: 0

Q: What about the “Chickweed plant response rating” value (chickweed; Rate 32 g/ha) of the same molecule?
A: 0

Q: And the “Downy brome plant response rating” value (downy brome; Rate 2 g/ha)?
A: 0

Q: And the “Downy brome plant response rating” value (downy brome; Rate 4 g/ha)?
A: 0

Q: And the “Downy brome plant response rating” value (downy brome; Rate 8 g/ha)?
A: 0

Q: What about the “Downy brome plant response rating” value (downy brome; Rate 16 g/ha) of the same molecule?
A: 0

Q: What about the “Downy brome plant response rating” value (downy brome; Rate 32 g/ha) of the same molecule?
A: 0

Q: What about the “Field violet plant response rating” value (field violet; Rate 2 g/ha) of the same molecule?
A: 0

Q: What about the “Field violet plant response rating” value (field violet; Rate 4 g/ha) of the same molecule?
A: 0

Q: And the “Field violet plant response rating” value (field violet; Rate 8 g/ha)?
A: 10

Q: What about the “Field violet plant response rating” value (field violet; Rate 16 g/ha) of the same molecule?
A: 70

Q: And the “Field violet plant response rating” value (field violet; Rate 32 g/ha)?
A: 80

Q: And the “Galium (1) plant response rating” value (galium; Rate 2 g/ha)?
A: 0

Q: And the “Galium (2) plant response rating” value (galium; Rate 2 g/ha)?
A: 0

Q: What about the “Galium (1) plant response rating” value (galium; Rate 4 g/ha) of the same molecule?
A: 0

Q: What about the “Galium (2) plant response rating” value (galium; Rate 4 g/ha) of the same molecule?
A: 0

Q: What about the “Galium (1) plant response rating” value (galium; Rate 8 g/ha) of the same molecule?
A: 40

Q: And the “Galium (2) plant response rating” value (galium; Rate 8 g/ha)?
A: 30

Q: And the “Galium (1) plant response rating” value (galium; Rate 16 g/ha)?
A: 40

Q: What about the “Galium (2) plant response rating” value (galium; Rate 16 g/ha) of the same molecule?
A: 60

Q: And the “Galium (1) plant response rating” value (galium; Rate 32 g/ha)?
A: 60

Q: What about the “Galium (2) plant response rating” value (galium; Rate 32 g/ha) of the same molecule?
A: 60

Q: What about the “Kochia plant response rating” value (kochia; Rate 2 g/ha) of the same molecule?
A: 75

Q: What about the “Kochia plant response rating” value (kochia; Rate 4 g/ha) of the same molecule?
A: 80

Q: What about the “Kochia plant response rating” value (kochia; Rate 8 g/ha) of the same molecule?
A: 80

Q: What about the “Kochia plant response rating” value (kochia; Rate 16 g/ha) of the same molecule?
A: 100

Q: What about the “Kochia plant response rating” value (kochia; Rate 32 g/ha) of the same molecule?
A: 100

Q: What about the “Lambsquarters plant response rating” value (lambsquarters; Rate 2 g/ha) of the same molecule?
A: 55

Q: What about the “Lambsquarters plant response rating” value (lambsquarters; Rate 4 g/ha) of the same molecule?
A: 60

Q: And the “Lambsquarters plant response rating” value (lambsquarters; Rate 8 g/ha)?
A: 60

Q: And the “Lambsquarters plant response rating” value (lambsquarters; Rate 16 g/ha)?
A: 100

Q: And the “Lambsquarters plant response rating” value (lambsquarters; Rate 32 g/ha)?
A: 100

Q: And the “Ryegrass plant response rating” value (ryegrass; Rate 2 g/ha)?
A: 0

Q: What about the “Ryegrass plant response rating” value (ryegrass; Rate 4 g/ha) of the same molecule?
A: 0

Q: And the “Ryegrass plant response rating” value (ryegrass; Rate 8 g/ha)?
A: 0

Q: What about the “Ryegrass plant response rating” value (ryegrass; Rate 16 g/ha) of the same molecule?
A: 0

Q: What about the “Ryegrass plant response rating” value (ryegrass; Rate 32 g/ha) of the same molecule?
A: 30

Q: And the “Sunflower plant response rating” value (sunflower; Rate 2 g/ha)?
A: 0

Q: And the “Sunflower plant response rating” value (sunflower; Rate 4 g/ha)?
A: 20

Q: And the “Sunflower plant response rating” value (sunflower; Rate 8 g/ha)?
A: 30

Q: And the “Sunflower plant response rating” value (sunflower; Rate 16 g/ha)?
A: 60

Q: And the “Sunflower plant response rating” value (sunflower; Rate 32 g/ha)?
A: 100

Q: What about the “Wheat (Spring) plant response rating” value (spring wheat; Rate 2 g/ha) of the same molecule?
A: 0

Q: What about the “Wheat (Spring) plant response rating” value (spring wheat; Rate 4 g/ha) of the same molecule?
A: 0

Q: And the “Wheat (Spring) plant response rating” value (spring wheat; Rate 8 g/ha)?
A: 0

Q: What about the “Wheat (Spring) plant response rating” value (spring wheat; Rate 16 g/ha) of the same molecule?
A: 10

Q: What about the “Wheat (Spring) plant response rating” value (spring wheat; Rate 32 g/ha) of the same molecule?
A: 10

Q: What about the “Wheat (Winter) plant response rating” value (winter wheat; Rate 2 g/ha) of the same molecule?
A: 0

Q: What about the “Wheat (Winter) plant response rating” value (winter wheat; Rate 4 g/ha) of the same molecule?
A: 0

Q: And the “Wheat (Winter) plant response rating” value (winter wheat; Rate 8 g/ha)?
A: 10

Q: And the “Wheat (Winter) plant response rating” value (winter wheat; Rate 16 g/ha)?
A: 10

Q: What about the “Wheat (Winter) plant response rating” value (winter wheat; Rate 32 g/ha) of the same molecule?
A: 10

Q: What about the “Wild mustard plant response rating” value (wild mustard; Rate 2 g/ha) of the same molecule?
A: 40

Q: What about the “Wild mustard plant response rating” value (wild mustard; Rate 4 g/ha) of the same molecule?
A: 100

Q: And the “Wild mustard plant response rating” value (wild mustard; Rate 16 g/ha)?
A: 100

Q: And the “Wild mustard plant response rating” value (wild mustard; Rate 32 g/ha)?
A: 100

Q: And the “Wild oat (1) plant response rating” value (wild oat; Rate 2 g/ha)?
A: 0

Q: And the “Wild oat (2) plant response rating” value (wild oat; Rate 2 g/ha)?
A: 0

Q: And the “Wild oat (1) plant response rating” value (wild oat; Rate 4 g/ha)?
A: 0

Q: And the “Wild oat (2) plant response rating” value (wild oat; Rate 4 g/ha)?
A: 0

Q: What about the “Wild oat (1) plant response rating” value (wild oat; Rate 8 g/ha) of the same molecule?
A: 0

Q: And the “Wild oat (2) plant response rating” value (wild oat; Rate 8 g/ha)?
A: 0

Q: And the “Wild oat (1) plant response rating” value (wild oat; Rate 16 g/ha)?
A: 0

Q: And the “Wild oat (2) plant response rating” value (wild oat; Rate 16 g/ha)?
A: 0

Q: What about the “Wild oat (1) plant response rating” value (wild oat; Rate 32 g/ha) of the same molecule?
A: 10

Q: What about the “Wild oat (2) plant response rating” value (wild oat; Rate 32 g/ha) of the same molecule?
A: 10

Q: And the “Wild radish plant response rating” value (wild radish; Rate 2 g/ha)?
A: 0

Q: And the “Wild radish plant response rating” value (wild radish; Rate 4 g/ha)?
A: 0

Q: What about the “Wild radish plant response rating” value (wild radish; Rate 8 g/ha) of the same molecule?
A: 10

Q: What about the “Wild radish plant response rating” value (wild radish; Rate 16 g/ha) of the same molecule?
A: 20

Q: What about the “Wild radish plant response rating” value (wild radish; Rate 32 g/ha) of the same molecule?
A: 20
